Values quoted from earlier work in paper PMC11667226 (Theranostics, 2025).

Test system: EGFR
Settings: microscopic histopathology as reference; ref Van Keulen et al. [36]; cited from earlier work
Source text: Van Keulen et al. reported a 95% sensitiv ...

panitumumab-IRDye800: antibody-based optical imaging agent targeting EGFR
Sensitivity for detection of inadequate margins (< 5mm): 95% | Specificity for detection of inadequate margins (< 5mm): 89%
